Test results taken from patent US5158939A, “Method of stimulating the immune systems of animals and compositions useful therefor” (priority 1990, dated 1992).

Columns and labels:
neutrophil = details: literature; cited from earlier work
[1] = test system: RAW 264.7 murine macrophage cells; test: Cachectin/TNF production by RAW 264.7 cells, immunoblot; assay type: cell-based; details: other lipid A analogs and precursors
Description: For the […] to activate the RAW 264.7 murine macrophage cell line, we chose the toxic deep rough chemotype LPS (ReLPS) from Escherichia coli D31m4, which was recently purified and characterized^15. […] This is a clear example of a lipid A derivative showing strong antagonism against a toxic agonist in the induction of cachectin.
The immunoblot method was used to quantitate the cachectin/TNF production by RAW 264.7 murine macrophage cells. RAW 264.7 cells^4,16 were seeded in 24-well plates (Nunc) at a density of 3×10^5 cells/well in Dulbecco's modified Eagle's medium supplemented with 5 percent fetal calf serum. After 12 hours, cell monolayers were washed twice with 1 ml of serum-free medium and then left covered with […] of the same. An aqueous suspension of DPLA and/or ReLPS was then added to a final concentration indicated. Cells were incubated for 12 hours, after which the medium was removed for measurement of TNF by immunoblotting. One hundred μl of medium was mixed with 100 μl of SDS-containing sample buffer, heated to 100° C. for 5 minutes, and subjected to electrophoresis in a 10-15% polyacrylamide gradient gel. Proteins were then transferred to nitrocellulose electrophoretically, and TNF was visualized through the use of a rabbit anti-mouse TNF polyclonal serum^3,5 applied at a 1:100 dilution, followed by alkaline phosphatase-conjugated goat anti-rabbit IgG (Bio-Rad).
Bands were visualized using nitroblue tetrazolium. Approximately 0.1 ng of cachectin/TNF may be detected as a band. The antiserum also recognized the processing intermediates (prohormones) on Western blot.

70Z/3 cells = details: background; cited from earlier work
[2] = large excess of lipid X; cited from earlier work

Compound	inhibition of LPS-induced neutrophil priming (neutrophil)	induction of cachectin in RAW cells (immunoblot) [1]	activity in stimulating 70Z/3 cells (70Z/3 cells)	blocking of toxic effects of lipid A [2]
CCCCCCCCCCC[C@@H](O)CC(=O)N[C@H]1[C@@H](OP(=O)(O)O)O[C@H](CO)[C@@H](O)[C@@H]1NC(=O)C[C@H](O)CCCCCCCCCCC [3-aza-lipid X]	inhibit the LPS-induced neutrophil priming	–	–	–
CCCCCCCCCCC[C@@H](O)CC(=O)N[C@H]1[C@@H](OP(=O)(O)O)O[C@H](CO)[C@@H](O)[C@@H]1OC(=O)C[C@H](O)CCCCCCCCCCC [lipid X]	inhibit the LPS-induced neutrophil priming	caused the induction of cachectin	some activity in stimulating 70Z/3 cells	partially blocking its toxic effects
CCCCCCCCCCC[C@@H](O)CC(=O)N[C@H]1[C@H](OC[C@H]2O[C@H](OP(=O)(O)O)[C@H](NC(=O)C[C@H](O)CCCCCCCCCCC)[C@@H](OC(=O)C[C@H](O)CCCCCCCCCCC)[C@@H]2O)O[C@H](CO)[C@@H](OP(=O)(O)O)[C@@H]1OC(=O)C[C@H](O)CCCCCCCCCCC [precursor IVA, reference compound]	–	caused the induction of cachectin	–	–
monophosphoryl lipid A [reference compound]	–	caused the induction of cachectin	–	–
